Experiments:
[1] = molecular target: Full-length PRMT5 enzyme co-expressed with His6-MEP50 (Homo sapiens (Human), UniProt O14744); assay: PRMT5 Biochemical Assay; settings: histone H4 derived peptide substrate, Transcreener EPIGEN methyltransferase assay, 4 hours at 37 degree Celsius
Procedure: Compounds of the invention may be tested for in vitro activity in the following assay: A histone H4 derived peptide is used as substrate (amino acid sequence: […]NH2). Full-length PRMT5 enzyme (NCBI Reference sequence NP_006100.2) was co-expressed with His6-MEP50 in insect cells and purified via Nickel immobilized metal affinity and gel filtration chromatography (“the enzyme”).
The 6 μL reactions are run in Greiner brand black 384-well low volume assay plates. All reactions contained assay buffer (phosphate buffered saline, 0.01% (v/v) Tween-20, 0.01% (w/v) albumin from chicken egg white, 1 mM Dithiothreitol, 1 μM peptide substrate, 1 μM S-Adenosyl methionine, and 15 ng/reaction enzyme, with the enzyme being omitted from negative control reactions. Compounds were added in a volume of 100 nL from dilution series prepared in DMSO, positive and negative control reactions receiving the same volume DMSO without compound. The plates were sealed with adhesive seals and incubated for 4 hours at 37 degree Celsius. Reaction progress was measured using the Transcreener™ EPIGEN methyltransferase assay (BellBrook Labs, Madison, Wis.) as recommended by the manufacturer. To each reaction 2 μL detection mix were added, containing coupling enzymes, fluorescence polarisation tracer, and AMP antibody. Plates were incubated for 90 minutes before being read on a PerkinElmer EnVision™ plate reader in fluorescence polarisation mode.

[2] = tested on: symmetrical dimethylation of arginine (Di-Methyl Histone H4 Arginine 3) in TE11 cells; assay: cells; settings: Homo sapiens, TE-11, 72 h
Procedure: Compounds of the invention may be tested for potency to inhibit symmetrical dimethylation of arginine in the following assay:
The cell line TE11 was seeded at a density of 6,000 cells per well in 96 well optical quality tissue culture plates in DME medium and 10% foetal bovine serum, and allowed to adhere for 5 hours under standard culture conditions (37 degree Celsius, 5% CO2). […] After incubation for 72 hours, the cells were fixed with 3.7% formaldehyde in PBS for 30 minutes at room temperature, washed with phosphate buffer saline and blocked with Odyssey blocking buffer (LI-COR, Lincoln, Nebr.). Rabbit anti-Di-Methyl Histone H4 Arginine 3 specific antibody (Epigentek) in Odyssey blocking buffer was added and incubated for 14 hours at 4 degree Celsius.

Sequence of Full-length PRMT5 enzyme co-expressed with His6-MEP50 (O14744 whole entry): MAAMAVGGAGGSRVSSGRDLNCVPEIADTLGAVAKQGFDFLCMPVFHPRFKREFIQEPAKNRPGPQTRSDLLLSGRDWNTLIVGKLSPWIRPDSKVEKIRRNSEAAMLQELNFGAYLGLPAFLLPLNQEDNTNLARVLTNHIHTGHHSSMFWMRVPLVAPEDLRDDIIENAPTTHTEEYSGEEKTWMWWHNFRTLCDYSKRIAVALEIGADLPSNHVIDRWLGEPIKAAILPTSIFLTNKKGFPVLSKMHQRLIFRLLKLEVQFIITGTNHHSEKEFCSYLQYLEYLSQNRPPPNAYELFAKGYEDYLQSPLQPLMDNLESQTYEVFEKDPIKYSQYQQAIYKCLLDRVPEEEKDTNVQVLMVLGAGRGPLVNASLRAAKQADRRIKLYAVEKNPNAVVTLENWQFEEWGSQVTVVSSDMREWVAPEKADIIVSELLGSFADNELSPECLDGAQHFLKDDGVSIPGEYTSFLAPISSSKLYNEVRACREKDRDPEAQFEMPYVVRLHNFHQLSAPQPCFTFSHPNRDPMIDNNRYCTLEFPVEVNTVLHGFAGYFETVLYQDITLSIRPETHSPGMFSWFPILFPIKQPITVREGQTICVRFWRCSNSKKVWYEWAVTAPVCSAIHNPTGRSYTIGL
Sequence of Full-length PRMT5 enzyme co-expressed with His6-MEP50 (Q9BQA1 whole entry partner): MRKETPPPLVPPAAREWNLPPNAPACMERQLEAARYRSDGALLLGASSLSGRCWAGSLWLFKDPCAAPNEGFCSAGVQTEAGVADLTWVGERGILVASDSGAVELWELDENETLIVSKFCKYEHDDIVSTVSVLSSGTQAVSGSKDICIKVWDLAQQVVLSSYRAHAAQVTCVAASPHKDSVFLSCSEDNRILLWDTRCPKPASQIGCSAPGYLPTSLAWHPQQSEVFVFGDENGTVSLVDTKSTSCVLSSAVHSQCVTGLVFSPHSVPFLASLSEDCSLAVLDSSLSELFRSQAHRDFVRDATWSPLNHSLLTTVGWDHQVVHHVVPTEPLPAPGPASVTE

SMILES | IC50 [1] | IC50 [2]
CCc1nn(C[C@@H](O)CNC2Cc3ccccc3C2)c(=O)c2ccc(C(=O)N3C4CCC3COC4)cc12 [Compound 3, 6-(3-Oxa-8-azabicyclo[3.2.1]octane-8-carbonyl)-2-((S)-3-((2,3-dihydro-1H-Inden-2-yl)amino)-2-hydroxypropyl)-4-ethylphthalazin-1(2H)-one] | 30 nM | 1.9 nM
Cc1nn(CC(O)CNC2Cc3ccccc3C2)c(=O)c2ccccc12 (centres unmarked) [Compound 1, 2-(3-((2,3-Dihydro-1H-inden-2-yl)amino)-2-hydroxypropyl)-4-methylphthalazin-1(2H)-one] | 4530 nM | 
Cc1nn(C[C@@H](O)CNC2Cc3ccccc3C2)c(=O)c2ccc(C(=O)N3C4CCC3COC4)cc12 [Compound 2, 6-(3-Oxa-8-azabicyclo[3.2.1]octane-8-carbonyl)-2-((S)-3-((2,3-dihydro-1H-Inden-2-yl)amino)-2-hydroxypropyl)-4-methylphthalazin-1(2H)-one] | 170 nM | 18 nM

From patent publication US10961256B2, “PRMT5 inhibitors” (priority 2016, dated 2021)
